Paper PMC9234961 (Journal of Medicinal Chemistry, 2022)

Key:
[1] = target: T1, GR (Homo sapiens, UniProt P04150); assay: SAFETYScan NHR Protein Interaction, Agonist; assay type: cell-based
T1 sequence (P04150 1-777): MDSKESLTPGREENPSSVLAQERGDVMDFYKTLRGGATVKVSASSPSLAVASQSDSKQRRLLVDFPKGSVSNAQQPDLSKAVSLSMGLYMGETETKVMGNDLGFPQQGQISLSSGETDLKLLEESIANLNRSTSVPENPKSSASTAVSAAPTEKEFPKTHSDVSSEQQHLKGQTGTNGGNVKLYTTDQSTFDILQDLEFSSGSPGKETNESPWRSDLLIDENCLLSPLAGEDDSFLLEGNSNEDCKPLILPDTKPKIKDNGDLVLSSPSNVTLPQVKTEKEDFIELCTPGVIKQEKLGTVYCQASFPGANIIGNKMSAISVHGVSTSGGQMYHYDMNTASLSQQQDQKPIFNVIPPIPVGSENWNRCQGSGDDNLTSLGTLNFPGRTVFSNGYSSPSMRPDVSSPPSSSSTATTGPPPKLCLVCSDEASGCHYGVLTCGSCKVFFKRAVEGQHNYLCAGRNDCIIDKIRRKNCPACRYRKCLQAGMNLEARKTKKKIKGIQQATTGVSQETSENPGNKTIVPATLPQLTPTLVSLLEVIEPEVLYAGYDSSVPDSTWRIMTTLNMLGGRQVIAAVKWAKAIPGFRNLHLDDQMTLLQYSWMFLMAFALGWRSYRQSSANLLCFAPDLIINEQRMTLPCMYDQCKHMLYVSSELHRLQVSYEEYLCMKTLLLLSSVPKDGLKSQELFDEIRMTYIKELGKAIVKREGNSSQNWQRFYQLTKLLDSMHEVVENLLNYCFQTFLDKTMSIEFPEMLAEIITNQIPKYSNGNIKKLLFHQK
Excerpt: (§1) Supplement jm1c02175_si_002.xlsx, sheet "SAFETYScan" | column: RC50 (uM); Max Response

[2] = target: BCL6 in Karpas 422 cells (Homo sapiens, UniProt P41182); assay: cell-based
Method: 3.2 Mesoscale Discovery (MSD) Degradation Assay
An MSD assay was developed for screening of compounds to determine the degradation of endogenous BCL6 in OCI-Ly1 cells. Briefly, test compounds in DMSO or DMSO alone to a total of 1332.5 nL/well were dispensed to a 96-well Nunc™ Edge 2 plate (ThermoFisher Scientific, 267544) using an Echo® 550 acoustic […]
supplemented with 10% heat-inactivated fetal bovine serum (Sera Plus, PAN Biotech, P30-3702) were […]
incubation at 37 °C + 5% CO2 the plate was centrifuged at 300 x g for 5 minutes. […]
plate washer for all wash and aspiration steps, media was removed and cells were rinsed with PBS, centrifuged as before and PBS removed. Cells were lysed in 50 µL ice-cold lysis buffer at pH 7.4 containing 50 mM Tris-HCl, 150 mM NaCl, 1 % Triton X-100 (v/v), 1 mM PMSF, 1 mM activated sodium vanadate, 1 mM EDTA, phosphatase inhibitors 2 and 3 (1:50 dilution) and protease inhibitor cocktail (1:100 dilution).
20 °C or continuing the assay. A 96-well MSD standard bind plate (MSD, L15XA-3) which was coated overnight with 1 µg/mL anti-human BCL6 goat antibody in PBS (R&D Systems, AF5046) was blocked in 3% BSA in TBS + 0.1% Tween-20 for 1 hour with shaking. Wells were emptied thoroughly before 40 µL/well of lysate was transferred from the cell plate. The MSD plate was incubated at RT for 1 hour with shaking then washed three times with TBS + 0.1 % Tween-20. Antibodies were prepared in TBS + 0.1% Tween-20 + 1% BSA. Anti-human BCL6 rabbit antibody (Cell Signalling Technology, 14895S) was added at 1:100 dilution at 25 µL/well. The plate was incubated and washed as before. MSD Sulfo-tag anti-rabbit detection antibody (MSD, R32AB-1) at 1:1000 dilution at 25 µL/well was added. The plate was incubated and washed as before and MSD Gold read buffer (MSD R92TG) at 1:1 dilution with water at 150 µL/well was added. The plate was read within 10 minutes on the MSD Quickplex reader. The % inhibition at each […]
3.3 Cell proliferation assay
Aldrich) supplemented with 10% FBS (Gibco). […]
transferred onto the cells.
Assay plates containing cells […]

[3] = target: T2, HTR2B (Homo sapiens, UniProt P41595); assay: SAFETYScan GPCR Calcium Flux, Antagonist; assay type: cell-based
T2 construct: expressed in transfected cells
T2 sequence (P41595 whole entry): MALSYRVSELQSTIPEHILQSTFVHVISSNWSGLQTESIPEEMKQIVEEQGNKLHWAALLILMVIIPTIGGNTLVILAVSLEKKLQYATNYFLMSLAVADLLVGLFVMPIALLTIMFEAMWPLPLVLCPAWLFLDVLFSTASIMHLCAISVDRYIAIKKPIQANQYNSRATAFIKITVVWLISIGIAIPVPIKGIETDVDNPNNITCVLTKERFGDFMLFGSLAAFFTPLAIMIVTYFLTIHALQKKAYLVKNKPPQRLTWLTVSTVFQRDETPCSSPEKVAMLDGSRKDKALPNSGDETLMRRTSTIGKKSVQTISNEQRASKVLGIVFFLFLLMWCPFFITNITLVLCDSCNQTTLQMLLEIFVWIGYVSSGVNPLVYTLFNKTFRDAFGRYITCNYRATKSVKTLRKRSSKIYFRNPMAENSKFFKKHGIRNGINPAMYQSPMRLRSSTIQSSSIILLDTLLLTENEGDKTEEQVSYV
Excerpt: as §1

[4] = target: T3, EDNRA (Homo sapiens, UniProt P25101); assay: SAFETYScan GPCR Calcium Flux, Antagonist; assay type: cell-based
T3 sequence (P25101 21-427): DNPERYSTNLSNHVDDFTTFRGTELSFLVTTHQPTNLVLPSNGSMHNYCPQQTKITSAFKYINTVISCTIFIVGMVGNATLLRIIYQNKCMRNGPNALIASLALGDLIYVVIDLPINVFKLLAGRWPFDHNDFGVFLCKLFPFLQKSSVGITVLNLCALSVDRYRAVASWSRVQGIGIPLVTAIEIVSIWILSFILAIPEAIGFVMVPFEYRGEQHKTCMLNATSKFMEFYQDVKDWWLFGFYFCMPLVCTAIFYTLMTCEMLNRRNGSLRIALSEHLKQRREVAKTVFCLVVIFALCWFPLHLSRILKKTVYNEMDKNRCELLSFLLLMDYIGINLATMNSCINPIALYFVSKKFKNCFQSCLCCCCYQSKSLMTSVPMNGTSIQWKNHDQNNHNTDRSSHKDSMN
Excerpt: as §1

[5] = target: T4, CCKAR (Homo sapiens, UniProt P32238); assay: SAFETYScan GPCR Calcium Flux, Antagonist; assay type: cell-based
T4 sequence (P32238 1-428): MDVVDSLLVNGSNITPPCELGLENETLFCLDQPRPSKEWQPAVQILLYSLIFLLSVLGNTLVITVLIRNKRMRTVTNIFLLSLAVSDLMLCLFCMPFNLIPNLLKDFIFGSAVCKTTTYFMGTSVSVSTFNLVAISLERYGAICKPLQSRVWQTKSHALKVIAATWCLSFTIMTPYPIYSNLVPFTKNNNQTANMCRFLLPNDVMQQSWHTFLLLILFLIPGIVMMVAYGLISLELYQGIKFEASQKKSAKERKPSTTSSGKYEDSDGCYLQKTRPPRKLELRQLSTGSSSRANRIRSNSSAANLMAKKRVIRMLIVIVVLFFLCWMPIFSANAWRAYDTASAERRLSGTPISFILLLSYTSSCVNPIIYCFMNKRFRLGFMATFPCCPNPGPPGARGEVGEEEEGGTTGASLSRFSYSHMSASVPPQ
Excerpt: as §1

[6] = in vitro; assay type: in vitro ADME; conditions: bovine; fraction unbound in OCI-Ly1 DC50 assay medium; read-out: fu,media

Work on `C[C@H]1C[C@@H](O)CN(c2ncc(Cl)c(Nc3ccc4c(c3)c3c(c(=O)n4C)OCC(F)(F)[C@H](C4CC4)N3)n2)C1` [12a CCT373566, (S)-10-((5-Chloro-2-((3R,5S)-3-hydroxy-5-methylpiperidin-1-yl)pyrimidin-4-yl)amino)-2-cyclopropyl-3,3-difluoro-7-methyl-1,2,3,4-tetrahydro-[1,4]oxazepino[2,3-c]quinolin-6(7H)-one] yielded an Emax ([1]; read-out: Max Response) of 0.05%, an EC50 ([1]; read-out: RC50 (EC50)) greater than 10 µM and a Dmax ([2]; KARPAS-422, read-out: MSD degrader assay [Karpas 422] Dmax) of 85%. It also gave a DC50 ([2]; read-out: MSD degrader assay [Karpas 422] DC50, Karpas 422 cells) of 0.001 µM, an Emax ([3]; read-out: Max Response) of 24.2% and an IC50 ([3]; read-out: RC50 (IC50)) greater than 10 µM. The Emax ([4]; read-out: Max Response) was 0%, the IC50 ([4]; read-out: RC50 (IC50)) was greater than 10 µM and the Emax ([5]; read-out: Max Response) was 0%. For the same compound, the IC50 ([5]; read-out: RC50 (IC50)) was greater than 10 µM and the fraction unbound [6] was 0.13.
